Results from patent US20070225301A1, “TREATMENT OF ACNE AND OTHER DISEASES” (Astion Inflammation ApS, priority 2006, published 2007).
Structures can show the parent of a compound that is named as a salt.

How the values were obtained:
acne vulgaris = assay: Case with treatment of acne vulgaris; type: in vivo, human; settings: person; for Reddened inflamed area surrounding the lesion: topical treatment of acne vulgaris
Description: A person was suffering from acne vulgaris characterised by comedones and some inflammatory lesions. They had previously regularly used a 5% benzoyl peroxide cream to treat the condition. During a flare up of the condition they applied a 5.0% aqueous solution of Pemirolast (potassium salt) once daily for four weeks to the areas affected. […] The treatment was followed and assessed by a physician.

[1] = system: arachidonic acid-induced ear inflammation; assay: Arachidonic acid-induced ear-inflammation test in mice; type: in vivo, female BALB/cA mice; settings: intraperitoneal, 30 minutes before arachidonic acid; ear oedema one hour after
Protocol: The anti-inflammatory potential of Pemirolast can be tested in “arachidonic acid-induced ear-inflammation test in mice”, a commonly employed method for screening and evaluation of antiinflammatory drugs. Dexamethasone was employed as reference compound.
The study can be performed in female BALB/cA mice from M & B A/S, DK-8680 Ry. The test substances (various concentration of Pemirolast dissolved in aqueous solutions) and the reference compound are administered intraperitoneally in volumes of 20 ml per kg body weight 30 minutes before application of arachidonic acid to the ear. All groups are then treated with 20 μl arachidonic acid, 100 mg/ml in acetone, on the right ear.
One hour after the application of arachidonic acid the mice are sacrificed, the ears cut from the tip with a punch biopsy knife (8 mm diameter) and weighed. Mean weights and standard deviations are calculated. Relative ear oedema is assessed as the weight difference between right and left ear of each mouse expressed as percent of the left ear. Percent inhibition of the relative ear oedema compared with the vehicle treated groups is calculated for the test substance and reference compound treated groups. […]

IL-1α = assay: Cytokine production, LPS induced human PBMC; type: cell-based; settings: stated in words only, no value
Protocol: The inhibition of Pemirolast on cytokine production was determined using the assay “LPS induced human PBMC”.

PPAR-α = target: T1, PPAR-α (Homo sapiens, UniProt Q07869); assay: Gal-4-PPAR luciferase reporter assay in HEK 293-T (Indigo Biosciences); type: cell-based; settings: % inhibition 50, 14 hours treatment, read-out: Concentration of Pemirolast giving 50 % inhibition of PPAR-α
T1 sequence (Q07869 200-468 limits assumed): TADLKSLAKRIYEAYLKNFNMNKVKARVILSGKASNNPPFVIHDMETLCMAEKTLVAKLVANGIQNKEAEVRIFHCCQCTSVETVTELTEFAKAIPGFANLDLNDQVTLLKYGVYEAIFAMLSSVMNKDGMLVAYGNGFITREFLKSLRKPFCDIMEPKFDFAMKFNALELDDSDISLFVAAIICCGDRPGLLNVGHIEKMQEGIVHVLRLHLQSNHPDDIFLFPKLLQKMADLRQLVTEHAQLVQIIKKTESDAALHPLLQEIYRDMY
Protocol: (§1) The inhibitory effect of Pemirolast on PPAR was determined by Indigo Biosciences. The following assay procedure was used: Compounds were diluted in DMSO to a final concentration of […] and serial dilutions prepared. The cell line HEK 293-T was transiently transfected with Gal-4-human PPARα, γ, Gal-4-luciferase and pRL (renilla, to correct for efficiency). The cells were treated with Pemirolast or with positive controls (ciprofibrate, or rosiglitazone) for 14 hours. The cells were lysed and luciferase and renilla activity were determined.

PPAR-γ = target: T2, PPAR-γ (Homo sapiens, UniProt P37231); assay: as above; type: cell-based; settings: % inhibition 50, 14 hours treatment, read-out: Concentration of Pemirolast giving 50 % inhibition of PPAR-γ
T2 sequence (P37231 238-505 limits assumed): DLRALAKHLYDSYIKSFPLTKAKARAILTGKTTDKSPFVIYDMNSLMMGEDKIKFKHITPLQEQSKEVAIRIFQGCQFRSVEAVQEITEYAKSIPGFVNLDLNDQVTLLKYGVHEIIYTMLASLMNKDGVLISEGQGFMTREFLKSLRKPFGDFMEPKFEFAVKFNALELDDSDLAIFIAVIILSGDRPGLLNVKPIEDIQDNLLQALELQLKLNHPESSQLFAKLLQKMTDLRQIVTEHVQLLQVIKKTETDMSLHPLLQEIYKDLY
Protocol: as §1

[2] = 5.0% aqueous solution once daily for four weeks, topical

Row | IC50 (PPAR-α) [µM] | IC50 (PPAR-γ) [µM] | Structure (SMILES) | Inflammatory acne lesions after treatment (acne vulgaris; [2]) | Scarring after treatment (acne vulgaris; [2]) | Reddened inflamed area surrounding the lesion (acne vulgaris) | Effect on inflammatory reaction in the arachidonic acid treated ear [1] | Inhibition of IL-1α (IL-1α)
1 | – | – | Cc1cccn2c(=O)c(-c3nnn[nH]3)cnc12 [Pemirolast (potassium salt)] | completely recessed | without any noticeable scarring | also recessed | – | –
2 | – | – | O=C(OOC(=O)c1ccccc1)c1ccccc1 [benzoyl peroxide] | – | – | did not remove the reddened inflamed area | – | –
3 | 17 | 20 | Cc1cccn2c(=O)c(-c3nnn[nH]3)cnc12 [Pemirolast, 9-methyl-3-(1H-tetrazol-5-yl)-4H-pyrido[1,2-a]pyrimidin-4-one] | – | – | – | significantly prevented the inflammatory reaction | inhibits
